Key:
Type in all cases: biochemical
HIV-1 RT [1] = molecular target: T1, HIV-1 RT (Human immunodeficiency virus type 1 group M subtype B, UniProt P04585); assay: Gel-based single nucleotide incorporation assay by HIV-1 RT (primer-template P1T1); details: for % of P + 1 / % of P + 2: P1T1 125 nM
T1 construct: HIV-1 Reverse Transcriptase serves, in the HIV-1 viral replication process, as catalyst; purchased Ambion
Description: (§1) DNA polymerase reactions: end-labeled primer was annealed to its template by combining primer and template in a molar ratio of 1:2 and heating the mixture to 70° C. for 10 minutes followed by slow cooling to room temperature over a period of 1.5 hour. For the incorporation of a modified nucleoside, a series of 20 μL-batch reactions was performed with the enzyme HIV-1 RT (Ambion, 10 U/μL stock soln, specific activity 8.095 Wring, concentration 1.2 mg/mL). The final mixture contained 125 nM primer template complex, RT buffer (250 mM Tris.HCl, 250 mM KCl, 50 mM MgCl2, 2.5 mM spermidine, 50 mM dithiothreitol (DTT); pH 8.3), 0.025 U/μL HIV-1 RT, and different concentrations of the phosphoramidate to be tested (1 mM, 500 μM, 200 μM and 100 μM).
(§2) Electrophoresis: all polymerase reaction aliquots (2.5 μL) were quenched by the addition of 10 μL of loading buffer (90% formamide, 0.05% bromophenol blue, 0.05% xylene cyanol and 50 mM ethylenediaminetetraacetic acid (EDTA)). Samples were heated at 85° C. for 5 minutes prior to analysis by electrophoresis for 2.5 hours at 2000 V on a 30 cm×40 cm×0.4 mm 20% (19:1 mono:bis) denaturing gel in the presence of a 100 mM Tris-borate, 2.5 mM EDTA buffer; pH 8.3. Products were visualized by phosphorimaging. The amount of radioactivity in the bands corresponding to the products of enzymatic reactions was determined by using the imaging device Cyclone@ and the Optiquant image analysis software (Perkin Elmer).
Here, the ability of phosphoramidate analogues as substrate for HIV-1 RT was investigated by the gel-based single nucleotide incorporation assay. The natural nucleoside triphosphate (dATP) was used as reference.
The ability of HIV-1 reverse transcriptase to incorporate phosphoramidate analogues 2-6 was analysed by gel-based single-nucleotide-incorporation assays using the primer-template complex P1T1.

Taq DNA polymerase = Taq DNA polymerase (Thermus aquaticus, UniProt P19821); assay: Single nucleotide incorporation using Taq DNA polymerase; details: P1T1
Description: 3-phosphono-L-Ala-dAMP (3) was tested as a substrate for Taq DNA polymerase (data in FIG. 5).

HIV-1 RT [2] = molecular target: T1, HIV-1 RT; assay: Steady-state kinetics of single nucleotide incorporation by HIV-1 RT
Description: The efficiency of incorporation by HIV-1 RT of 3-phosphono-L-Ala-dAMP (3) was investigated by determination of the kinetic parameters Km and Vmax. The steady-state kinetics assay was carried out as follows. The reaction was started by adding HIV-1 RT to P1-T1 complex, buffer, 3-phosphono-L-Ala-dAMP (3) and dATP. The final mixture (20 μL) contained 0.025 U/μL HIV-1 RT, buffer, 125 nM primer-template complex, and various concentrations 3-phosphono-L-Ala-dAMP and dATP. The range of concentrations for phosphoamidates was optimized according to a Km value for the incorporation of an individual nucleotide. In the case of HIV-1 RT, reaction mixtures containing the enzyme in concentration (0.025 U/μL) to attain 5-25% conversion and appropriate substrate concentration (0.5-100 μM used for 3-phosphono-L-Ala-dAMP (3) and 0.1-10 μM used for dATP) were incubated at 37° C. and run for 8-10 different time intervals (2-20 minutes). The incorporation velocities were calculated based on the percentage of single-nucleotide extension product (P+1 band). The kinetic parameters (Vmax and Km) were determined by plotting V (nM/min) versus substrate concentration (μM) and fitting the data point to a nonlinear Michaelis-Menten regression using GraphPad Prism software.

HIV-1 RT [3] = molecular target: T1, HIV-1 RT; assay: Elongation of primer P1 directed by template T2 by HIV-1 RT; details: P1T2; for P+7 product: 60 min
Description: as §1, §2
In order to further investigate the potentiality of the leaving groups of this invention, L-Cys-dAMP (2) and 3-phosphono-L-Ala-dAMP (3) were tested in the template dependent incorporation of more than one phosphoramidate nucleotides by HIV-1 RT (FIG. 4). For this purpose, Primer P1 and template T2 containing an overhang of seven thymidine residues and four nucleobases (GGAC) at the 3′-end were used.
In order to investigate the strand elongation capacity of compound 2, a template dependent incorporation of more than one nucleotide experiment was carried out. In this experiment HIV-1 RT and P1T2 duplex, where seven thymidine bases overhang of the template is flanked by four non-thymidine units at the 3′-end were used. A range of concentration of the building block was incubated with the primer-template complex and 0.025 U/μL of enzyme at the appropriate temperature, samples were quenched after 15, 30, 60, 90 and 120 minutes respectively and analyzed by 20% polyacrylamide gel electrophoresis.

HIV-1 RT [4] = molecular target: T1, HIV-1 RT; assay: Gel-based single nucleotide incorporation assay by HIV-1 RT (primer-template P1T1)
[5] = P1T1 125 nM, HIV-1 RT 0.025 U/μL, 37° C.

Taq DNA polymerase, sequence (P19821 whole entry): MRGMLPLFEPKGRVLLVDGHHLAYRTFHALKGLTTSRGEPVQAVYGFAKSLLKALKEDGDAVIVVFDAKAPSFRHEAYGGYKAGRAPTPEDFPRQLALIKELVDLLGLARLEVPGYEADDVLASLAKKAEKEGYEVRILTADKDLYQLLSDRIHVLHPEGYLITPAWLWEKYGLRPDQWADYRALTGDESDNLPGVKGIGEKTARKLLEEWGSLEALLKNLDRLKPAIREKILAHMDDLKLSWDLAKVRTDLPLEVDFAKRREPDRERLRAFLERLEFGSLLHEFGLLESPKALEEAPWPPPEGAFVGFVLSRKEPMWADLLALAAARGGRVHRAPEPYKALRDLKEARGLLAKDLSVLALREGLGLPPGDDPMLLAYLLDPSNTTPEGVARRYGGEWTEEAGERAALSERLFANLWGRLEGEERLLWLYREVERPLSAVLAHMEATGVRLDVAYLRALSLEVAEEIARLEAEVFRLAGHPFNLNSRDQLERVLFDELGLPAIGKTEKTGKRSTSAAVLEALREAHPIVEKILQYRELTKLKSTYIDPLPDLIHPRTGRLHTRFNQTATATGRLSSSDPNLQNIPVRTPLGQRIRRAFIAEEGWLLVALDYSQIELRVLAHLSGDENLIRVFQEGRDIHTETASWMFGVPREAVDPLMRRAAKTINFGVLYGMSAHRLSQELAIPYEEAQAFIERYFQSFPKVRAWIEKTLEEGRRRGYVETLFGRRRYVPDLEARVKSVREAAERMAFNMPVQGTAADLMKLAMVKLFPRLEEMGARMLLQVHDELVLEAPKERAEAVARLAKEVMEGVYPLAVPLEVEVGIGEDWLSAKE

Nc1ncnc2c1ncn2[C@H]1C[C@H](O)[C@@H](COP(=O)(O)N[C@@H](CP(=O)(O)O)C(=O)O)O1 [Compound 3, 2′-deoxyadenosine-5′-(3-phosphono-L-alanine) phosphoramidate]
% of P + 1 (HIV-1 RT [1]; 50 μM substrate, 20 min): 89.9%
% of P + 1 (HIV-1 RT [1]; 50 μM substrate, 30 min): 92.6%
% of P + 1 (HIV-1 RT [1]; 50 μM substrate, 60 min): 94.6%
% of P + 1 (HIV-1 RT [1]; 50 μM substrate, 120 min): 95.9%
% of P + 1 (HIV-1 RT [1]; 100 μM substrate, 10 min): 94.8%
% of P + 1 (HIV-1 RT [1]; 100 μM substrate, 20 min): 97.7%
% of P + 1 (HIV-1 RT [1]; 100 μM substrate, 30 min): 97.6%
% of P + 1 (HIV-1 RT [1]; 100 μM substrate, 60 min): 97.9%
% of P + 1 (HIV-1 RT [1]; 100 μM substrate, 120 min): 97.5%
% of P + 1 (HIV-1 RT [1]; 200 μM substrate, 10 min): 91.7%
% of P + 2 (HIV-1 RT [1]; 200 μM substrate, 10 min): 3.0%
% of P + 1 (HIV-1 RT [1]; 200 μM substrate, 20 min): 93.8%
% of P + 2 (HIV-1 RT [1]; 200 μM substrate, 20 min): 3.4%
% of P + 1 (HIV-1 RT [1]; 200 μM substrate, 30 min): 93.7%
% of P + 2 (HIV-1 RT [1]; 200 μM substrate, 30 min): 3.6%
% of P + 1 (HIV-1 RT [1]; 200 μM substrate, 60 min): 93.0%
% of P + 2 (HIV-1 RT [1]; 200 μM substrate, 60 min): 4.3%
% of P + 1 (HIV-1 RT [1]; 200 μM substrate, 120 min): 94.2%
% of P + 2 (HIV-1 RT [1]; 200 μM substrate, 120 min): 3.6%
% of P + 1 (HIV-1 RT [1]; 500 μM substrate, 10 min): 88.8%
% of P + 2 (HIV-1 RT [1]; 500 μM substrate, 10 min): 7.5%
% of P + 1 (HIV-1 RT [1]; 500 μM substrate, 20 min): 88.4%
% of P + 2 (HIV-1 RT [1]; 500 μM substrate, 20 min): 9.6%
% of P + 1 (HIV-1 RT [1]; 500 μM substrate, 30 min): 86.9%
% of P + 2 (HIV-1 RT [1]; 500 μM substrate, 30 min): 11.1%
% of P + 1 (HIV-1 RT [1]; 500 μM substrate, 60 min): 87.0%
% of P + 2 (HIV-1 RT [1]; 500 μM substrate, 60 min): 11.2%
% of P + 1 (HIV-1 RT [1]; 500 μM substrate, 120 min): 87.0%
% of P + 2 (HIV-1 RT [1]; 500 μM substrate, 120 min): 11.5%
% of P + 1 (HIV-1 RT [1]; 1 mM substrate, 10 min): 80.6%
% of P + 2 (HIV-1 RT [1]; 1 mM substrate, 10 min): 16.7%
% of P + 1 (HIV-1 RT [1]; 1 mM substrate, 20 min): 73.7%
% of P + 2 (HIV-1 RT [1]; 1 mM substrate, 20 min): 23.7%
% of P + 1 (HIV-1 RT [1]; 1 mM substrate, 30 min): 75.9%
% of P + 2 (HIV-1 RT [1]; 1 mM substrate, 30 min): 22.1%
% of P + 1 (HIV-1 RT [1]; 1 mM substrate, 60 min): 76.3%
% of P + 2 (HIV-1 RT [1]; 1 mM substrate, 60 min): 21.9%
% of P + 1 (HIV-1 RT [1]; 1 mM substrate, 120 min): 76.4%
% of P + 2 (HIV-1 RT [1]; 1 mM substrate, 120 min): 21.7%
fold more efficient incorporation compared with L-Cys-dAMP (2) (HIV-1 RT [1]; HIV-1 RT single nucleotide incorporation): 10.7 fold
incorporation and primer extension by Taq DNA polymerase (in words) (Taq DNA polymerase): less active than HIV-1 RT
Km fold higher than the natural substrate dATP (HIV-1 RT [2]): 15 fold
Vmax fold lower than dATP (HIV-1 RT [2]): 1.7 fold
Km (HIV-1 RT [2]; [5]): 14.3 ± 3.78 µM
Vmax (HIV-1 RT [2]; [5]): 19.21 ± 1.58 nM/min
primer extension products (in words) (HIV-1 RT [3]; 50 μM and 100 μM substrate): only extended a primer with two and three adenine nucleobases
P+7 product (HIV-1 RT [3]; 200 μM substrate): 7.1%
P+7 product (HIV-1 RT [3]; 500 μM substrate): 15.9%
P+7 product (HIV-1 RT [3]; 1 mM substrate): 23.8%
incorporation activity relative to natural dATP (HIV-1 RT [3]): less active than the natural dATP
misincorporation (P+8) (HIV-1 RT [3]): did not result in any misincorporation
Incorporation (conversion to a P+1 strand) (HIV-1 RT [4]; 10 μM substrate): 27.1%
% of P + 1 (HIV-1 RT [4]; 50 μM substrate, 10 min, P1T1 125 nM): 84.5%
substrate quality for HIV-1 RT (in words) (HIV-1 RT [4]; among phosphoramidate analogues 1-5): best incorporation efficiency

Reference: US20120245029A1, “NOVEL PHOSPH(ON)ATE- AND SULF(ON)ATE-BASED PHOSPHATE MODIFIED NUCLEOSIDES USEFUL AS SUBSTRATES FOR POLYMERASES AND AS ANTIVIRAL AGENTS” (priority 2009, published 2012)
